Experiment [1] relates to DO11.10 tg CD4^+ T cells. Put plainly: CD4+CD25bright T cell content after 3 rounds of stimulation, FACS. It is filed as cell-based, mice. The protocol: (§1) Cells were stained with the indicated Abs (all from BD Biosciences, Mountain View, Calif.), and were analyzed with a FACScan flow cytometer equipped with CellQuest software (BD Biosciences). To obtain highly purified CD4^+CD25^+/− T cells, CD4^+ T cells were first purified from splenocytes isolated from Balb/c mice by positive selection with αCD4 mAb-coated microbeads (Miltenyi Biotec, Bergisch Gladbach, Germany). Thereafter, CD4^+ T cells were stained with Cy-coupled αCD4 and PE-coupled αCD25 mAbs (BD Biosciences) and CD4^+CD25^+ T cells were sorted by FACS-sorting on a FAC-Star (BD Biosciences).
1×10^6 CD4^+ T cells isolated from spleen of DO11.10 tg mice were stimulated with 4×10^6 APC from Balb/c mice (i.e. total splenocytes irradiated 3000 Rad) and 0.6 μM OVA323-339peptide (OVA) (Primm, Milano, Italy). Three rounds of stimulation of 7 days each were performed. IL-2 (BD Biosciences) was added starting from the second round of stimulation at 50 U/ml. Alternatively, 1×10^6 CD4^+ T cells isolated from spleen of Balb/c mice were stimulated with coated 10 μg/ml of αCD3 and soluble 1 μg/ml of αCD28 mAbs (BD Biosciences). Cells were cultured in the presence of medium alone or 100 nM rapamycin (Sigma, St Louis, Mo.). Three rounds of stimulation of 7 days each were performed. IL-2 (BD Biosciences) was added starting from the second round of stimulation at 50 U/ml. In separate experiments, sorted CD4^+CD25^+ T cells isolated from spleen of Balb/c mice were stimulated with coated 10 μg/ml of αCD3, soluble 1 μg/ml of αCD28 mAbs (BD Biosciences) and 1000 U/ml of IL-2. […]
After 3 rounds of stimulation with APC+OVA (medium) or APC+OVA+rapamycin (rapamycin), DO11.10 tg CD4^+ T cells were left resting for one week with no further stimulation in the presence of IL-2 (50 U/ml). After seven days cells were analyzed by FACS. […]
1×10^6 DO11.10 tg CD4^+ T cells (containing 70.000 CD4^+CD25^bright T cells) were cultured with APC+OVA (medium, white bar) or APC+OVA+rapamycin (dotted bar, rapamycin). After 3 rounds of stimulation, the total number of CD4^+CD25^brightT cells was determined by FACS.

In experiment [2] the test system is DO11.10 tg CD4^+ T cells. The experiment is described as follows: Cell size by FACS (FSC vs SSC) after 3 rounds of stimulation. The class given is cell-based, mice. The following applies: 3 weeks activation with rapamycin, one week rest with IL-2 50 U/ml. The protocol: After 3 rounds of stimulation with APC+OVA (medium) or APC+OVA+rapamycin (rapamycin), DO11.10 tg CD4^+ T cells were left resting for one additional week with no further stimulation in the presence of IL-2 (50 U/ml). At the end of the seven days cell size was analyzed by FACS by plotting FSC vs SSC parameters. Small (continuous line) and big (dotted line) cells are circled. Naïve CD4^+ T cells from a DO11.10 tg mouse were used as control.
On the technique in general: A flow cytometer gives signals particle by particle.

For experiment [3], the system named is DO11.10 tg CD4^+ T cells. The experiment is described as follows: Fold expansion of T cells over three rounds of APC+OVA stimulation, direct cell counts. The class given is cell-based, mice. The protocol:
(§2) 1×10^6 CD4^+ T cells isolated from spleen of DO11.10 tg mice were stimulated with 4×10^6 APC from Balb/c mice (i.e. total splenocytes irradiated 3000 Rad) and 0.6 μM OVA323-339peptide (OVA) (Primm, Milano, Italy). Three rounds of stimulation of 7 days each were performed. IL-2 (BD Biosciences) was added starting from the second round of stimulation at 50 U/ml. Alternatively, 1×10^6 CD4^+ T cells isolated from spleen of Balb/c mice were stimulated with coated 10 μg/ml of αCD3 and soluble 1 μg/ml of αCD28 mAbs (BD Biosciences). Cells were cultured in the presence of medium alone or 100 nM rapamycin (Sigma, St Louis, Mo.). Three rounds of stimulation of 7 days each were performed. IL-2 (BD Biosciences) was added starting from the second round of stimulation at 50 U/ml. In separate experiments, sorted CD4^+CD25^+ T cells isolated from spleen of Balb/c mice were stimulated with coated 10 μg/ml of αCD3, soluble 1 μg/ml of αCD28 mAbs (BD Biosciences) and 1000 U/ml of IL-2. Cells were cultured in the presence of medium alone or 100 nM rapamycin (Sigma, St Louis, Mo.). 1000 U/ml of IL-2 was added at the beginning of each new stimulation.
Fold expansion of T cells was determined after each round of stimulation. […] Rapamycin binds to FKBP12 and the formed complex inhibits the function of mTOR, which is involved in a broad range of physiological processes linked to the control of cell-cycle. […]

Experiment [4] has as its system CD4^+ T cells isolated from PBMCs. Put plainly: TCR-mediated proliferation and anergy of human CD4+ T cells, CFSE. The class given is cell-based. The protocol:
CD4^+ T cells isolated from PBMCs of healthy subjects or T1D patients were activated with plate bound anti-CD3 (10 μg/ml) and soluble of anti-CD28 (1 μg/ml) mAbs (BD Biosciences). Cells were cultured in the presence of medium (x-vivo 10) alone or with 100 nM rapamycin (Sigma, St Louis, Mo.). Three round of stimulations of 7 days each were performed. IL-2 (BD Biosciences) was added starting from the second round of stimulation at 100 U/ml.
CD4^+ T cells were stained with CFSE either at the beginning of the culture (1st week), or at the end of one (2nd week), or three (4th week) round of stimulations. CFSE^+ CD4^+ T cells were activated in vitro in the presence of anti-CD3+anti-CD28 mAbs in the presence or absence of 100 nM rapamycin. CFSE dilution was monitored 7 days after activation.
After 3 round of stimulations with anti-CD3+anti-CD28 mAbs (T medium) or anti-CD3+anti-CD28 mAbs+rapamycin (T rapamycin), CD4^+ T cells were stained with CFSE and re-stimulated with anti-CD3+anti-CD28 mAbs in the absence of the compound and of exogenous IL-2. CFSE dilution was monitored 7 days after activation. Numbers indicate the percentage of dividing cells.

For experiment [5], the system named is CD4^+CD25^− and CD4^+CD25^+ T cells. The experiment is described as follows: Proliferation of sorted CD4+CD25- and CD4+CD25+ T cells with anti-CD3+anti-CD28+IL-2, CFSE. The class given is cell-based, human. The following applies: 100 nM rapamycin, 7 days. The protocol:
CD4^+CD25^− and CD4^+CD25^bright T cells were FACS sorted. Subsequently, sorted CD4^+CD25^− T cells were stained with CSFE and sorted CD4^+CD25^+ T cells were added back to the same amount present in unsorted CD4^+ T cells (5%) (FIG. 13, left panel). Alternatively, sorted CD4^+CD25^+ T cells were stained with CSFE and sorted CD4^+CD25^− T cells were added back to the same amount present in unsorted CD4^+ T cells (95%) (right panel of FIG. 13). The two distinct CFSE stained cell populations were activated with anti-CD3+anti-CD28 mAbs+IL-2 in the presence or absence of 100 nM rapamycin. CFSE dilution was monitored 7 days after activation. Numbers indicate the percentage of CFSE^+ dividing cells.

In experiment [6] the test system is DO11.10 tg CD4^+ T cells. The experiment is described as follows: Re-stimulation without compound after 3 rounds, CFSE dilution (anergy). It is filed as cell-based, mice. The following applies: after 3 rounds with rapamycin, re-stimulated with APC+OVA without rapamycin and IL-2, 5 days. The protocol: The proportion of CFSE^+ cells proliferating in vitro was calculated as described elsewhere (Lyons 1994). Briefly, the number of cells (events) in a given cycle (division: n) was divided by 2 raised to power n, to calculate the percentage of original precursor cells from which they arose. The sum of original precursors from division 1 to 6 represents the number of precursors cells which proliferated. The percent of CFSE^+ divided cells was calculated by [(# of precursors that proliferated1-6/# of total precursors0-6)×100].
In more detail in relation to FIG. 1C, after 3 rounds of stimulation with APC+OVA (medium) or APC+OVA+rapamycin (rapamycin), DO11.10 tg CD4^+T cells were stained with CFSE and re-stimulated with APC+OVA in the absence of the compound and of exogenous IL-2. CFSE dilution was monitored 5 days after activation.

The test system of experiment [7] is Balb/c CD4^+CD25^+ T cells. The experiment is described as follows: Culture of sorted CD4+CD25+ T cells with αCD3+αCD28+1000 U/ml IL-2: fold expansion and CD25bright content. It is filed as cell-based, mice. The protocol: as §1
as §2, with “stimulation. […]” for “stimulation.”
Fold expansion of Balb/c CD4^+CD25^+ T cells 1, 2, and 3 weeks after culture in the presence of αCD3+αCD28+1000 U/ml IL-2 (medium, white bars) or αCD3+αCD28+1000 U/ml IL-2+rapamycin (rapamycin, dotted bars) was evaluated by direct cell counts. […] After seven days, cells were analyzed by FACS. […]

The next experiment has as its system FOXP3 mRNA. Put plainly: FOXP3 quantitative PCR. The note with it: CD4+ T cells exposed to rapamycin.
The test system of another experiment is CD4^+ T cells. The experiment is described as follows: In vitro treatment of CD4+ T cells with rapamycin: CD4+CD25+ Tr cell content. The class given is cell-based. The following applies: in vitro treatment of CD4+ T cells (5-10% Tr cells at start).
The subject of experiment [8] is DO11.10 tg CD4^+ T cells. The experiment is described as follows: Activation induced cell death (AICD) by annexin V binding, FACS. It is filed as cell-based, mice. The note with it: APC+OVA, 100 nM rapamycin, 24 and 72 hours, vs control cells. The protocol:
as §2
In more detail, DO11.10 tg CD4^+ T cells were cultured with APC+OVA (medium) or APC+OVA+rapamycin (rapamycin) and AICD was monitored by FACs after 24 and 72 hours of culture. Percentage of PI^+-annexinV^+ cells is indicated in each dot plot.

The subject of another experiment is NOD CD4^+ T cells. Put plainly: Ex vivo expansion of NOD CD4+ T cells with rapamycin: regulatory markers. The class given is cell-based. The note with it: pre-diabetic 11 week old NOD mice, three rounds of stimulation. The protocol:
CD4^+ T cells were obtained by incubation of splenocytes from pre-diabetic or diabetic NOD mice with αCD4 mAb-coated microbeads and applied onto MiniMacs columns (Miltenyi Biotec). The average purity was 95%. 1×10^6 CD4^+ T cells isolated from spleen of NOD mice were stimulated with coated 10 μg/ml of αCD3 and soluble 1 μg/ml of αCD28 mAbs (BD Biosciences). Cells were cultured in the presence of medium alone or 100 nM rapamycin (Sigma, St Louis, Mo.). Three rounds of stimulation of 7 days each were performed. IL-2 (BD Biosciences) was added starting from the second round of stimulation at 100 U/ml.
In this Example, we attempted to generate ex vivo Tr cells from non obese diabetic (NOD) mice. Spontaneously autoimmune diabetes in NOD mice mainly results from quantitative and qualitative changes in autoaggressive T effector cells. Older mice indeed harbor diabetogenic T cells that are progressively less prone to Tr cells-mediated inhibition (You et al. Diabetes, 2005). We tested whether rapamycin could expand functional Tr cells from NOD mice and whether these expanded T cells have a regulatory function. CD4^+ T cells were isolated from the spleen of pre-diabetic 11 week old NOD mice and were activated in vitro with anti-CD3 and CD28 mAbs in the presence of medium or rapamycin.

Molecules are shown by their SMILES.

Source text for FOXP3 mRNA: Total RNA was extracted with Eurozol (Euroclone, Switzerland), and cDNA was synthesized with High Capacity cDNA Archive Kit (Applied Biosystems, New Jersey, USA). Levels of FOXP3 mRNA was quantified using Assay on Demand real-time PCR kits (Applied Biosystems, New Jersey, USA) with TaqMan Universal PCR Master Mix (Applied Biosystems, New Jersey, USA). Levels of 18s rRNA was quantified as internal control by using TaqMan PDAR Eukaryotic 18s Endogenus Controls (Applied Biosystems, assay ID: Mm00475156m1). Samples were run in duplicate, and relative expression of FOXP3 was determined by normalizing to 18 s expression in each set of samples in order to calculate a fold-change in value.
To address this question, CD4^+ T cells depleted of the CD25^+ Tr cells were cultured for three weeks in the presence or absence of rapamycin. […] The cultured cells were added in equal number to naïve KJ1-26^+CFSE^+ cells (10^5:10^5) and proliferation was monitored by CFSE dilution. […] Relative levels of mRNA FOXP3 were determined by real time quantitative RT-PCR in CD4^+ (left panel) or CD4^+CD25^− (right panel) T cells repetitively activated in vitro with or without rapamycin. The amounts of FOXP3 mRNA are expressed as relative to that in splenocytes depleted of CD4^+CD25^+ T cells (which was given an arbitrary value of 1). […]

For the compound `CO[C@H]1C[C@@H]2CC[C@@H](C)[C@@](O)(O2)C(=O)C(=O)N2CCCC[C@H]2C(=O)O[C@H]([C@H](C)C[C@@H]2CC[C@@H](O)[C@H](OC)C2)CC(=O)[C@H](C)/C=C(\C)[C@@H](O)[C@@H](OC)C(=O)[C@H](C)C[C@H](C)/C=C/C=C/C=C/1C` [rapamycin], the “enrichment in CD4+CD25bright T cells” value in the experiment with DO11.10 tg CD4^+ T cells [1] (T cells activated in the presence of rapamycin) is “highly enriched in”. Also, in the experiment with DO11.10 tg CD4^+ T cells [1] (cells exposed to rapamycin, 3 rounds APC+OVA), the “content of CD4+CD25bright Tr cells” value is “around 60%”. Besides, the “total number of CD4+CD25bright T cells recovered” value in the experiment on DO11.10 tg CD4^+ T cells [1] (three weeks of culture, repetitive Ag-stimulation) is recorded as “markedly superior to that of control cultures”. Further, the “cell size and shape” value in the experiment on DO11.10 tg CD4^+ T cells [2] is “smaller and displayed a more round-like shape than control cells”. The “kinetic of proliferation (fold expansion)” value with DO11.10 tg CD4^+ T cells [3] (APC+OVA, 100 nM rapamycin, weeks 1-3) is on record as “delayed kinetic of proliferation compared to control cells”; in experiment [7] (100 nM rapamycin), “delayed kinetic of proliferation compared to control cells”. Besides, in the experiment with DO11.10 tg CD4^+ T cells [3] (end of the third week of culture), the “number of T cells recovered” value was “the same number of T cells was recovered in control- and rapamycin-cultures”. Moreover, in experiment [4] (after 3 rounds, re-stimulated without compound and IL-2), the T cell anergy result is given as “Does Not Induce T Cell Anergy”. Besides, the “TCR-mediated proliferation of CD4+ T cells” value in experiment [4] (anti-CD3+anti-CD28, 100 nM rapamycin) is recorded as “Strongly Reduces TCR-Mediated Proliferation”. Moreover, the “TCR-mediated proliferation of CD4+CD25- vs CD4+CD25+ T cells” value in [5] is on record as “Selectively Blocks TCR-Mediated Proliferation of CD4^+CD25^− T Cells but not of CD4^+CD25^+ Tr Cells”. Also, the “ability to proliferate on re-stimulation” value with DO11.10 tg CD4^+ T cells [6] was “retained their ability to proliferate”. For the same compound, in experiment [7] (starting from the third week of culture), the expansion result was “greatly expanded”. The “percentage of CD4+CD25bright T cells” value in [7] (three weeks, vs control cells) was “higher percentage of”. Moreover, the FOXP3 expression result in the experiment with FOXP3 mRNA is “enhanced”. Moreover, in the experiment on CD4^+ T cells, the “increase of the CD4+CD25+ Tr cell content” value was found to be 20 fold. Further, the “apoptosis (AICD) upon in vitro activation” value with DO11.10 tg CD4^+ T cells [8] is given as “neither increase nor reduction of apoptosis was observed”. For the same compound, the “enrichment in CD4+CD62L+ and CD45RBlow cells” value with NOD CD4^+ T cells is on record as “highly enriched in”.

Source of the values: patent publication US8562974B2, “Method for expanding Cd4+ Cd25+ T regulator cells” (Fondazione Telethon, priority 2005, dated 2013).
